Where a SMILES comes first, the peptide text is derived from it. Bridges are numbered along the chain shown (N, C = ends). Roman numbers before positions name the chains, in order. [ ]: non-standard residue; d: D form. The star is where a group is joined. NαAmidinoTrp = N=C(N)N[C@@H](Cc1c[nH]c2ccccc12)C(=O)*; Hyp = O=C(O)[C@@H]1C[C@@H](O)CN1; Pen = CC(C)(S)[C@H](N)C(=O)O; Tle = CC(C)(C)[C@H](N)C(=O)O; dDab = NCC[C@@H](N)C(=O)O; hCys = N[C@@H](CCS)C(=O)O; Dab = NCC[C@H](N)C(=O)O; dAze = O=C(O)[C@H]1CCN1 A value given as a limit tells only on which side of the number the result lay.

What all share (assay type): cell-based
Series [1] concerns human red blood cells (hRBC). In words: Hemolysis of human red blood cells. As to conditions: red cells of human, 1 h. As to the method: (§1) Lyophilized peptides were weighed on a Microbalance (Mettler MT5) and dissolved in sterile water to a final concentration of 1 mg/mL. Stock solutions were kept at +4° C., light protected.
The peptides were tested for their hemolytic activity against human red blood cells (hRBC). Fresh hRBC were washed three times with phosphate buffered saline (PBS) and centrifuged for 10 min at 2000×g. Compounds (100 μg/mL) were incubated with 20% hRBC (v/v) for 1 h at 37° C. and shaking at 300 rpm. The final erythrocyte concentration was approximately 0.9×10^9 cells/mL. A value of 0% and 100% cell lyses, respectively, was determined by incubation of hRBC in the presence of PBS containing 0.001% acetic acid and 2.5% Triton X-100 in H2O, respectively. The samples were centrifuged, the supernatants were 8-fold diluted in PBS buffer and the optical densities (OD) were measured at 540 nm. The 100% lyses value (OD540H2O) gave an OD540 of approximately 0.5-1.0.
Percent hemolysis was calculated as follows: (OD540peptide/OD540H2O)×100%.

Series [2] has as its system Escherichia coli ATCC 25922. As to conditions: ATCC 25922. As to the method:
as §1
(§2) The in vitro antimicrobial activities of the peptides were determined in 96-well plates (Greiner, polystyrene) by the standard CLSI broth microdilution method (Clinical and Laboratory Standards Institute 2014. Performance standards for antimicrobial susceptibility testing, 24th informational supplement. Approved standard CLSI M100-S24; Clinical and Laboratory Standards Institute, Wayne, Pa.). Inocula of the microorganisms were diluted into Mueller-Hinton II (MH-cation adjusted) broth and compared with a 0.5 McFarland standard to give appr. 10^6 colony forming units (CFU)/mL. Aliquots (90 μL) of inoculate were added to 10 μL of MH-II broth+P-80 (Polysorbate 80, 0.002% final concentration, v/v) containing the peptide in serial two-fold dilutions. The following microorganisms were used to determine antibiotic activity of the peptides: Escherichia coli ATCC 25922, Klebsiella pneumoniae SSI #3010^a), Acinetobacter baumannii DSM 30008, Pseudomonas aeruginosa ATCC 27853 and the clinical isolates Escherichia coli 926415^b), Klebsiella pneumoniae 968733^b) and Acinetobacter baumannii 872842^b). Antimicrobial activities of the peptides were expressed as the minimal inhibitory concentration (MIC) in μg/mL at which no visible growth was observed after 18-20 hours of incubation at 35° C. ^a) Obtained from Statens Serum Institut (SSI), Copenhagen, Denmark^b) Obtained from International Health Management Associates, Inc. (IHMA Europe Sàrl), Epalinges, Switzerland

Series [3] has as its system Acinetobacter baumannii DSM 30008. To be noted: DSM 30008. Here is the method:
as §1, §2

The subject of series [4] is Klebsiella pneumoniae SSI #3010. As to conditions: SSI #3010. Here is the method: as §1, §2
Series [5] has as its system Pseudomonas aeruginosa ATCC 27853. To be noted: ATCC 27853. As to the method: as §1, §2

As for `CC(C)C[C@@H]1NC(=O)[C@@H](CC(C)C)NC(=O)[C@H](CCN)NC(=O)[C@@H](NC(=O)[C@H](CCN)NC(=O)[C@@H](NC(=O)[C@H](CCN)NC(=O)CC[C@@H]2NC(=O)[C@H](CCN)NC(=O)[C@H](Cc3ccc(O)cc3)NC(=O)[C@H]([C@@H](C)O)NC(=O)[C@H](C(C)C)NC(=O)[C@@H]3CCCN3C(=O)[C@H]3CCN3C(=O)[C@H](CO)NC(=O)[C@H](C)NC(=O)[C@H](C(C)(C)C)NC(=O)[C@H](CCN)NC(=O)[C@H](Cc3c[nH]c4ccccc34)NC(=O)[C@H](CCN)NC(=O)[C@@H](CCN)NC2=O)[C@@H](C)O)CCNC(=O)[C@H]([C@@H](C)O)NC(=O)[C@H](CCN)NC(=O)[C@H](CCN)NC1=O` [Ex. 101] (I: cyclo(AS[dAze]PVTY[Dab]E[dDab][Dab]W[Dab][Tle]) / II: [Dab]T[Dab][Dab][Dab][dL]L[Dab][Dab]T; amide I:9-II:N; lactam II:4-II:C), the “Hemolysis at 100 μg/mL” value in series [1] (100) is 4%. Also, the “Escherichia coli ATCC 25922 MIC” value in series [2] turned out to be 1 µg/mL. For the same compound, the “Acinetobacter baumannii DSM 30008 MIC” value in series [3] was 2 µg/mL. Further, the “Klebsiella pneumoniae SSI #3010 MIC” value in series [4] worked out at 1 µg/mL. The “Pseudomonas aeruginosa ATCC 27853 MIC” value in series [5] amounted to 0.25 µg/mL.
For the compound `CC(C)C[C@@H]1NC(=O)[C@@H](CC(C)C)NC(=O)[C@H](CCN)NC(=O)[C@@H](NC(=O)[C@H](CCN)NC(=O)[C@@H](NC(=O)[C@H](CCN)NC(=O)CNC(=O)[C@@H]2CCSSC[C@H](NC(=O)[C@@H](N)Cc3c[nH]c4ccccc34)C(=O)N[C@@H](C(C)C)C(=O)N[C@@H](C)C(=O)N[C@@H](CO)C(=O)N3CCC[C@@H]3C(=O)N3CCC[C@H]3C(=O)N[C@@H](CC(C)C)C(=O)N[C@@H](CO)C(=O)N[C@@H](Cc3ccc(O)cc3)C(=O)N2)[C@@H](C)O)CCNC(=O)[C@H]([C@@H](C)O)NC(=O)[C@H](CCN)NC(=O)[C@H](CCN)NC1=O` [Ex. 134] (H-WCVAS[dP]PLSY[hCys]G[Dab]T[Dab][Dab][Dab][dL]L[Dab][Dab]T; disulfide 2-11; lactam 16-C), the “Hemolysis at 100 μg/mL” value in series [1] (100 μg/mL) is on record as under 1%. The “Escherichia coli ATCC 25922 MIC” value in series [2] amounted to 0.125 µg/mL. The “Acinetobacter baumannii DSM 30008 MIC” value in series [3] turned out to be 0.125 µg/mL. In series [4], the “Klebsiella pneumoniae SSI #3010 MIC” value amounted to 0.25 µg/mL. Besides, in series [5], the “Pseudomonas aeruginosa ATCC 27853 MIC” value was 1 µg/mL.
Turning to `CC(C)C[C@@H]1NC(=O)[C@H](CCN)NC(=O)[C@@H](CCN)NC(=O)[C@H](CO)NC(=O)[C@@H](NC(=O)[C@@H](NC(=O)[C@H](CCN)NC(=O)[C@@H](N)Cc2c[nH]c3ccccc23)C(C)C)CSSC[C@@H](C(=O)N[C@@H](Cc2ccc(O)cc2)C(=O)N[C@@H](CCN)C(=O)NCC(=O)N[C@@H](CCN)C(=O)N[C@H](C(=O)N[C@@H](CCN)C(=O)N[C@H]2CCNC(=O)[C@H]([C@@H](C)O)NC(=O)[C@H](CCN)NC(=O)[C@H](CCN)NC(=O)[C@H](CC(C)C)NC(=O)[C@@H](CC(C)C)NC(=O)[C@H](CCN)NC2=O)[C@@H](C)O)NC1=O` [Ex. 163] (H-W[Dab]VCS[dDab][Dab]LCY[Dab]G[Dab]T[Dab][Dab][Dab][dL]L[Dab][Dab]T; disulfide 4-9; lactam 16-C), the “Hemolysis at 100 μg/mL” value in series [1] (100 μg/mL) was under 1%. Also, the “Escherichia coli ATCC 25922 MIC” value in series [2] turned out to be 2 µg/mL. Also, the “Acinetobacter baumannii DSM 30008 MIC” value in series [3] was determined as 1 µg/mL. For the same compound, in series [4], the “Klebsiella pneumoniae SSI #3010 MIC” value was determined as 2 µg/mL. For the same compound, the “Pseudomonas aeruginosa ATCC 27853 MIC” value in series [5] was found to be 2 µg/mL.
Regarding `CC(C)C[C@@H]1NC(=O)[C@@H](CC(C)C)NC(=O)[C@H](CCN)NC(=O)[C@@H](NC(=O)[C@H](CCN)NC(=O)[C@@H](NC(=O)[C@H](CCN)NC(=O)CNC(=O)[C@H](CCN)NC(=O)[C@H](Cc2ccc(O)cc2)NC(=O)[C@@H]2CSSC[C@H](NC(=O)[C@@H](NC(=O)[C@H](CCN)NC(=O)[C@@H](N)Cc3c[nH]c4ccccc34)C(C)C)C(=O)N[C@@H](CO)C(=O)N[C@H](C)C(=O)N3C[C@H](O)C[C@H]3C(=O)N[C@@H](CC(C)C)C(=O)N2)[C@@H](C)O)CCNC(=O)[C@H]([C@@H](C)O)NC(=O)[C@H](CCN)NC(=O)[C@H](CCN)NC1=O` [Ex. 164] (H-W[Dab]VCS[dA][Hyp]LCY[Dab]G[Dab]T[Dab][Dab][Dab][dL]L[Dab][Dab]T; disulfide 4-9; lactam 16-C), in series [1] (100 μg/mL), the “Hemolysis at 100 μg/mL” value is under 1%. Besides, the “Escherichia coli ATCC 25922 MIC” value in series [2] turned out to be 0.0625 µg/mL. Further, the “Acinetobacter baumannii DSM 30008 MIC” value in series [3] stood at 0.25 µg/mL. The “Klebsiella pneumoniae SSI #3010 MIC” value in series [4] is 0.5 µg/mL. For the same compound, in series [5], the “Pseudomonas aeruginosa ATCC 27853 MIC” value stood at 0.5 µg/mL.
Turning to `CC(C)C[C@@H]1NC(=O)[C@@H](CC(C)C)NC(=O)[C@H](CCN)NC(=O)[C@@H](NC(=O)[C@H](CCN)NC(=O)[C@@H](NC(=O)[C@H](CCN)NC(=O)CNC(=O)[C@H](CCN)NC(=O)[C@H](Cc2ccc(O)cc2)NC(=O)[C@@H]2CSSC[C@H](NC(=O)[C@H](Cc3ccc(O)cc3)NC(=O)[C@H](CCN)NC(=O)[C@@H](N)Cc3c[nH]c4ccccc34)C(=O)N[C@@H](CO)C(=O)N3CCC[C@@H]3C(=O)N3CCC[C@H]3C(=O)N[C@@H](CC(C)C)C(=O)N2)[C@@H](C)O)CCNC(=O)[C@H]([C@@H](C)O)NC(=O)[C@H](CCN)NC(=O)[C@H](CCN)NC1=O` [Ex. 165] (H-W[Dab]YCS[dP]PLCY[Dab]G[Dab]T[Dab][Dab][Dab][dL]L[Dab][Dab]T; disulfide 4-9; lactam 16-C), in series [1] (100 μg/mL), the “Hemolysis at 100 μg/mL” value is 1%. In addition, the “Escherichia coli ATCC 25922 MIC” value in series [2] was 0.5 µg/mL. In addition, the “Acinetobacter baumannii DSM 30008 MIC” value in series [3] was 2 µg/mL. The “Klebsiella pneumoniae SSI #3010 MIC” value in series [4] is 1 µg/mL. The “Pseudomonas aeruginosa ATCC 27853 MIC” value in series [5] is 1 µg/mL.
As for `CC(C)C[C@@H]1NC(=O)[C@H](CCCNC(=N)N)NC(=O)[C@@H](CCN)NC(=O)[C@H](C(C)C)NC(=O)[C@@H](NC(=O)[C@H](Cc2ccc(O)cc2)NC(=O)[C@H](CCN)NC(=O)[C@@H](N)Cc2c[nH]c3ccccc23)CSSC[C@@H](C(=O)N[C@@H](Cc2ccc(O)cc2)C(=O)N[C@@H](CCN)C(=O)NCC(=O)N[C@@H](CCN)C(=O)N[C@H](C(=O)N[C@@H](CCN)C(=O)N[C@H]2CCNC(=O)[C@H]([C@@H](C)O)NC(=O)[C@H](CCN)NC(=O)[C@H](CCN)NC(=O)[C@H](CC(C)C)NC(=O)[C@@H](CC(C)C)NC(=O)[C@H](CCN)NC2=O)[C@@H](C)O)NC1=O` [Ex. 166] (H-W[Dab]YCV[dDab]RLCY[Dab]G[Dab]T[Dab][Dab][Dab][dL]L[Dab][Dab]T; disulfide 4-9; lactam 16-C), the “Hemolysis at 100 μg/mL” value in series [1] (100 μg/mL) is reported as 3%. For the same compound, in series [2], the “Escherichia coli ATCC 25922 MIC” value amounted to 2 µg/mL. Further, the “Acinetobacter baumannii DSM 30008 MIC” value in series [3] amounted to 2 µg/mL. Besides, in series [4], the “Klebsiella pneumoniae SSI #3010 MIC” value is 2 µg/mL. Further, the “Pseudomonas aeruginosa ATCC 27853 MIC” value in series [5] was found to be 2 µg/mL.
As for `CC(C)C[C@@H]1NC(=O)[C@@H](CC(C)C)NC(=O)[C@H](CCN)NC(=O)[C@@H](NC(=O)[C@H](CCN)NC(=O)[C@@H](NC(=O)[C@H](CCN)NC(=O)CNC(=O)[C@H]2NC(=O)[C@H](Cc3ccc(O)cc3)NC(=O)[C@H](CO)NC(=O)[C@H](CC(C)C)NC(=O)[C@@H]3CCCN3C(=O)[C@H]3CCCN3C(=O)[C@H](CO)NC(=O)[C@H](C)NC(=O)[C@H](C(C)C)NC(=O)[C@@H](NC(=O)[C@H](Cc3c[nH]c4ccccc34)NC(=N)N)C(C)(C)SSC2(C)C)[C@@H](C)O)CCNC(=O)[C@H]([C@@H](C)O)NC(=O)[C@H](CCN)NC(=O)[C@H](CCN)NC1=O` [Ex. 174] (NαAmidinoTrp-[Pen]VAS[dP]PLSY[Pen]G[Dab]T[Dab][Dab][Dab][dL]L[Dab][Dab]T; disulfide 1-10; lactam 15-C), the “Hemolysis at 100 μg/mL” value in series [1] (100 μg/mL) is listed as 1%. In series [2], the “Escherichia coli ATCC 25922 MIC” value amounted to 0.25 µg/mL. Also, the “Acinetobacter baumannii DSM 30008 MIC” value in series [3] was determined as 0.5 µg/mL. In addition, the “Klebsiella pneumoniae SSI #3010 MIC” value in series [4] came out at 0.5 µg/mL. In series [5], the “Pseudomonas aeruginosa ATCC 27853 MIC” value was 2 µg/mL.
